# Assay results as given in paper PMC5581522 (Cancer Science, 2017).
# Entries after “also recorded” stand apart in the source; their conditions may differ. Read-outs that look alike come from different tables or passages of the source. Marks after values point to notes of the source that are not given here.
# What was measured:
# [1] = test system: BRCA‐mutated tumors; details: phase 1, single agent; cited from earlier work
# [2] = test system: recurrent ovarian cancer and germline BRCA1 and BRCA2 mutations; details: cited from earlier work
# [3] = Phase 1 tolerability and safety (DLT, TEAEs, NCI CTCAE v4.0); assay type: in vivo, Japanese patients
# Method: Eligible patients were assigned to one of two treatment groups (dose levels). […] Three to six patients were enrolled in each treatment group. Dose escalation was carried out according to a 3 + 3 design to define dose‐limiting toxicities (DLTs), and the maximum administered dose/recommended phase 2 dose (RP2D). […] Patients received treatment for a maximum of 30 cycles or until treatment discontinuation. […] Treatment could be postponed for up to 28 days due to toxicity; longer toxicity‐related delays would lead to study discontinuation.
# The maximum tolerated dose (MTD) was defined as the highest dose level at which fewer than two of total six patients or <33% of patients (if the cohort was expanded beyond six patients) experienced a DLT. The RP2D was determined based on the observed DLTs and identified MTD; RP2D would not be dosed higher than the MTD. If the MTD was not reached, the RP2D was defined based on the safety and PK data. Prophylactic use of antiemetics and colony‐stimulating factors was not permitted during the DLT‐evaluation period, in order to clearly define the safety profile in Japanese patients.
# The safety of each treatment group was assessed by evaluating study drug exposure, AEs, serious AEs (SAEs), all deaths, changes in laboratory determinations, and vital signs parameters. […] AEs were assessed according to the NCI CTCAE version 4.0.29 An independent data monitoring committee reviewed safety data for DLT evaluation.
# [4] = test system: cancer antigen 125 (CA‐125); experiment: CA-125 tumor marker response (GCIG definition); assay type: in vivo, Japanese patients
# Method: All enrolled patients with ovarian cancer or peritoneal cancer had measurements of cancer antigen 125 (CA‐125) on day 1 of cycle 1, every cycle (28 days) thereafter, and at the final visit. CA‐125 response was measured according to the Gynecologic Cancer InterGroup (GCIG) CA‐125 response definition.31
# [5] = test system: advanced solid tumors; experiment: Preliminary antitumor efficacy (RECIST version 1.1, TTP); assay type: in vivo, Japanese patients; details: for ORR: measurable disease
# Method: To determine preliminary antitumor efficacy, baseline radiographic tumor assessments were conducted within 3 weeks prior to registration and thereafter every 8 weeks from cycle 1 day 1 and at the final visit, using the Response Evaluation Criteria In Solid Tumors (RECIST) version 1.1.30 In addition, the investigator evaluated the patient for evidence of clinical disease progression at each visit. Changes in measurable tumor lesions were assessed to determine the response rate, defined as proportion of patients with complete response (CR) or partial response (PR), and time to progression (TTP), defined as the number of days from the date the patient was dosed to the date the patient experienced an event of progressive disease (PD). […] Changes from baseline in performance status were analyzed.
# Unless otherwise noted, for all statistical analyses, statistical significance was determined by a two‐sided P‐value ≤0.05. Descriptive statistics were used to describe baseline demographic variables, and summary statistics were computed for PK variables at each sampling time. PK variables were determined per patient and dose level. The safety of veliparib was assessed by evaluating veliparib exposure, AEs, SAEs, all deaths, and changes in laboratory determinations and vital sign parameters. The proportion of patients with CR or PR was estimated with a 95% confidence interval (CI) constructed for the estimated proportion. The distribution of TTP was estimated using Kaplan‐Meier methodology.
# [6] = Plasma pharmacokinetics, cycle 1 day 1, noncompartmental; assay type: in vivo, Japanese patients; details: for half-life / AUC(0-inf) / Cmax / AUC(0-t): human, plasma; for half-life: harmonic mean ± pseudo SD; for AUC(0-inf) / Cmax / AUC(0-t): mean ± SD; for AUC(0-t): read-out: AUC0–8
# Excerpt: Noncompartmental methods were used to determine the maximum observed plasma concentration (C max), the time to C max (T max), the area under the plasma concentration‐time curve (AUC), and terminal elimination half‐life (t 1/2).
# [7] = 14 patients with measurable disease
# [8] = 200 mg oral, cycle 1 day 1, n = 4
# [9] = 400 mg oral, cycle 1 day 1, n = 9
# [10] = 400 mg oral, cycle 1 day 1, n = 12
smiles,measurement,setting,value
C[C@]1(c2nc3c(C(N)=O)cccc3[nH]2)CCCN1 [veliparib],clinical benefit rate (called DCR),[1],68%
same,objective response rate (ORR),[1],40%
same,DCR,"[2]; GOG‐280 study, germline BRCA1 or BRCA2 mutation",74.0%
same,patients with objective response,"[2]; n = 50, 90% CI: 16–38%",26%
same,CR (number of patients),[2]; n = 50,2
same,PR (number of patients),[2]; n = 50,11
same,median progression‐free survival,[2]; phase 2 monotherapy,8.2 months
same,objective responses,"[2]; platinum‐resistant patients, n = 6/30, 90% CI: 9–36%",20%
same,objective responses,"[2]; platinum‐sensitive patients, n = 7/20, 90% CI: 18–56%",35%
same,AEs / toxicities leading to death,[3]; all patients,No toxicities leading to death; also recorded: no AEs or SAEs leading to death
same,patients who discontinued treatment due to AEs/toxicity,"[3]; human, in vivo",6%
same,patients with a grade ≥3 AE / toxicity,"[3]; human, in vivo",50%
same,patients with abdominal pain,"[3]; human, in vivo",31.3%
same,patients with at least one grade ≥1 TEAE,"[3]; human, in vivo",100%
same,patients with decreased appetite,"[3]; human, in vivo",62.5%
same,patients with diarrhea,"[3]; human, in vivo",31.3%
same,patients with dysgeusia,"[3]; human, in vivo",31.3%
same,patients with fatigue,"[3]; human, in vivo",25%
same,patients with insomnia,"[3]; human, in vivo",25%
same,patients with malaise,"[3]; human, in vivo",31.3%
same,patients with nausea,"[3]; human, in vivo",93.8%
same,patients with neutropenia,"[3]; human, in vivo",25%
same,patients with thrombocytopenia,"[3]; human, in vivo",25%
same,patients with vomiting,"[3]; human, in vivo",93.8%
same,recommended phase 2 dose (RP2D),"[3]; human, in vivo, po, 28 days",400 mg BID
same,"anemia leading to dose interruption, reduction, or delay",[3]; in vivo,one patient
same,"decreased appetite leading to dose interruption, reduction, or delay",[3]; in vivo,one patient
same,"essential tremor leading to dose interruption, reduction, or delay",[3]; in vivo,one patient
same,"fatigue leading to dose interruption, reduction, or delay",[3]; in vivo,three patients
same,"nausea leading to dose interruption, reduction, or delay",[3]; in vivo,three patients
same,"neutropenia leading to dose interruption, reduction, or delay",[3]; in vivo,three patients
same,patients experiencing a SAE,[3]; in vivo,two patients
same,patients with a dose‐limiting toxicity (DLT),[3]; in vivo,one patient
same,"thrombocytopenia leading to dose interruption, reduction, or delay",[3]; in vivo,three patients
same,"vomiting leading to dose interruption, reduction, or delay",[3]; in vivo,two patients
same,median change in CA‐125 level from baseline,"[4]; all patients, range: −97.8% to +155.2%",−18.8%
same,patients achieving CA‐125 response,[4]; ovarian (n = 14) or primary peritoneal cancer (n = 1),20%
same,Best response: CR,[5]; 200 mg BID (n = 4),0 n (%)
same,Best response: Not evaluable,[5]; 200 mg BID (n = 4),1 (25.0) n (%)
same,Best response: PD,[5]; 200 mg BID (n = 4),1 (25.0) n (%)
same,Best response: PR,[5]; 200 mg BID (n = 4),1 (25.0) n (%)
same,Best response: Stable disease,[5]; 200 mg BID (n = 4),1 (25.0) n (%)
same,DCR (CR + PR + stable disease),[5]; 200 mg BID (n = 4),2 (50.0) n (%)
same,ORR,"[5]; 200 mg BID (n = 4), 95% CI 0.6–80.6",1 ^§ (25.0) [0.6–80.6] %
same,Median TTP,[5]; 200 mg dose cohort,"106 (range, 17–226) days"
same,Best response: CR,[5]; 400 mg BID (n = 10),0 n (%)
same,Best response: Not evaluable,[5]; 400 mg BID (n = 10),0 n (%)
same,Best response: PD,[5]; 400 mg BID (n = 10),2 (20.0) n (%)
same,Best response: PR,[5]; 400 mg BID (n = 10),1 (10.0) n (%)
same,Best response: Stable disease,[5]; 400 mg BID (n = 10),7 (70.0) n (%)
same,DCR (CR + PR + stable disease),[5]; 400 mg BID (n = 10),8 (80.0) n (%)
same,ORR,"[5]; 400 mg BID (n = 10), 95% CI 0.3–44.5",1 ^¶ (10.0) [0.3–44.5] %
same,Median TTP,[5]; 400 mg dose cohort,"170 (range, 48–340) days"
same,disease control overall,[5]; 12 of 16 patients,75%
same,patients progressed at first tumor assessment,[5]; [7],21.4%
same,patients with best objective response stable disease,[5]; [7],eight patients
same,patients with best objective response PR,"[5]; 14 patients with measurable disease, both with platinum sensitive ovarian cancer",Two patients
same,patients who discontinued treatment due to disease progression,[5]; all 16 patients,75%
same,median percentage change from baseline in the sum of the tumor sizes of target lesions,"[5]; all patients, range, −46.8% to +50.0%",−10.3%
same,"disease control rate (DCR, CR + PR + stable disease)",[5]; patients with measurable disease (10/14),71.4%
same,Median TTP,"[5]; platinum sensitive ovarian or peritoneal cancer, 400 mg BID, range, 48–340",218 days
same,Best response: CR,[5]; total (n = 14),0 n (%)
same,Best response: Not evaluable,[5]; total (n = 14),1 (7.1) n (%)
same,Best response: PD,[5]; total (n = 14),3 (21.4) n (%)
same,Best response: PR,[5]; total (n = 14),2 (14.3) n (%)
same,Best response: Stable disease,[5]; total (n = 14),8 (57.1) n (%)
same,DCR (CR + PR + stable disease),[5]; total (n = 14),10 (71.4) n (%)
same,ORR,"[5]; total (n = 14), 95% CI 1.8–42.8",14.3%
same,ORR,"[5]; total (n = 14), 95% CI 1.8–42.8, listed as Veliparib",2 (14.3) [1.8–42.8] %
same,best objective response,[5]; two patients without measurable disease at baseline,non‐CR/non‐PD
same,half-life,[6]; [8],4.6 ± 1.1 h
same,AUC(0-inf),[6]; [8],13600 ± 6240 ng·h/mL
same,Cmax,[6]; [8],2060 ± 1390 ng/mL
same,AUC(0-t),[6]; [8],8890 ± 3770 ng·h/mL
same,half-life,[6]; [9],4.6 ± 1.3 h
same,AUC(0-inf),[6]; [9],29500 ± 9820 ng·h/mL
same,Cmax,[6]; [10],3280 ± 1040 ng/mL
same,AUC(0-t),[6]; [10],16600 ± 3590 ng·h/mL
same,increase of C max and AUC with dose,[6]; single‐dose oral 200 mg and 400 mg,dose‐proportional
